Test results taken from article PMC10825133, “Repurposing proteasome inhibitors for improved treatment of triple-negative breast cancer” (Cell Death Discovery, 2024).
Where two headings read alike, the source gives them in different places.

Tests used:
CAL-148 cells = assay: Resazurin-based cell viability assay, monotherapy drug screen; design: species or system human; AUC: unit not given beside the values; details: CAL-148; for AUC: area under the dose response curve, 24 h; for GRmax: drug efficacy at highest tested dose (<0 cytotoxic, 0 cytostatic, >0 partial growth inhibition)
Experimental: (§1) Eighteen pharmaceutical compounds were purchased from Selleckchem (Supplementary Table 2). Stock solutions were prepared using dimethyl sulfoxide (DMSO; Merck), physiological saline (sodium chloride 0.9%) or Milli-Q water, and stored at −80 °C. […] Matched concentration solvent vehicle controls were used for each drug concentration. The drug screens were performed in triplicate and repeated three (monotherapy) or two (combination therapy) times (Fig. 7).
(§2) The optimal seeding density per 96-well was determined for each cell line as previously described. The cells were seeded at a density of 4.0 × 10^3 to 7.5 × 10^3 (cell type dependent) in 96-well clear, flat-bottom microplates (Corning Life Sciences, Sigma-Aldrich) in 100 µl complete culture medium (Supplementary Table 1) and cultured for 24 h. Cell viability was determined using the resazurin assay in untreated cells at the time of plating (t = 0) and treated cells after 24 h drug treatment (Fig. 7). Percentage cell viability was calculated as 100% × (absorbance of treated cells – absorbance of background controls) / (absorbance of matched solvent vehicle controls – absorbance of background controls). The area under the curve (AUC), half-maximal inhibitory concentration (IC50), drug potency (GR50), and drug efficacy (GRmax) were determined for each compound using the GRmetrics (version 1.20.0) package in R. The monotherapy data were evaluated with the IDACombo (version 1.0.2) package in R to predict potential drug combinations (Table 1). SynergyFinder (version 3.2.10) package in R was used to identify synergistic drug combinations.
(§3) Eighteen pharmaceutical compounds were purchased from Selleckchem. […] The solubility of the compound was enhanced by pre-heating the solvent (lukewarm), if necessary. […] The stock solutions were stored at -80°C. […] Matched concentration solvent vehicle controls were used for each drug concentration. The drug screens were performed in triplicate and repeated three times for the monotherapies and twice for the combination treatments. The drug(s) and corresponding controls were plated in 96-well PCR plates (VWR) and stored at -20°C (Fig. 6). The drug plates were thawed, centrifuged (3000 rpm for 30s), and acclimatized to RT before the drugs were added to the cells. New drug plates were prepared for each drug screen.
Cell viability was measured daily (day 0 [plating day] to day 4) using 0.2 mg/ml resazurin solution prepared from resazurin sodium salt (Fisher Scientific) dissolved in sterile 1xPBS (ThermoFisher Scientific). Before use, the resazurin solution was brought to RT before 10 µl (10% of cell medium volume) was added to each 96-well and incubated for 4h at 37°C. […] The slope of the curve was used to determine the optimal seeding density, i.e., the highest seeding density with linear growth between days 1 and 3.
(§4) The cells were seeded at a density of 4.0x10^3 to 7.5x10^3 (cell type-dependent) in 96-well clear, flat-bottom microplates (Corning Life Sciences, Sigma-Aldrich) in 100 µl culture medium supplemented with 10% FBS and cultured for 24h. Cell viability was determined using the resazurin assay after 24h drug treatment (Fig. 6). Percentage cell viability was calculated as 100% × (absorbance of treated cells – absorbance of background controls) / (absorbance of matched solvent vehicle controls – absorbance of background controls). Normalized growth rate inhibition (GR) was assessed using the absorbance of untreated cells after the time of plating (t = 0). […] For combination treatment, the monotherapy data were evaluated with the IDACombo (version 1.0.2)[20] package in R to predict potential drug combinations (Table 1). SynergyFinder (version 3.2.10)[21] package in R was used to identify synergistic drug combinations.

BT-549 cells = assay: as above; design: species or system human; AUC: scale not given here; details: BT-549; for AUC: area under the dose response curve, 24 h; for GRmax: drug efficacy at highest tested dose (<0 cytotoxic, 0 cytostatic, >0 partial growth inhibition); for IC50: growth rate inhibition concentration at GR(c) = 0.5, 24 h, read-out: GR50 (the source's name)
Experimental: (§5) Eighteen pharmaceutical compounds were purchased from Selleckchem. […] The stock solutions were stored at -80°C. […] New drug plates were prepared for each drug screen.
(§6) To determine the optimal seeding density and ensure that the cells were in the exponential phase during the duration of the experiment (approx. 52h), each cell line (BT-549, CAL-148, HCC1806, HCC38, HCC70, MCF-10A, MCF-7, MDA-MB-436, MDA-MB-453, and MDA-MB-468) was seeded at different concentrations (1000 to 16000 cells) per 96-well, as previously described. Cell viability was measured daily (day 0 [plating day] to day 4) using 0.2 mg/ml resazurin solution prepared from resazurin sodium salt (Fisher Scientific) dissolved in sterile 1xPBS (ThermoFisher Scientific). Before use, the resazurin solution was brought to RT before 10 µl (10% of cell medium volume) was added to each 96-well and incubated for 4h at 37°C. The absorbance was measured with a 560 nm excitation filter and a 615 nm emission filter in a Wallac 1420 VICTOR2™ microplate reader (Perkin Elmer). The slope of the curve was used to determine the optimal seeding density, i.e., the highest seeding density with linear growth between days 1 and 3.

HCC1806 cells = assay: as above; design: species or system human; AUC: scale not given here; details: HCC1806; for AUC: area under the dose response curve, 24 h; for GRmax: drug efficacy at highest tested dose (<0 cytotoxic, 0 cytostatic, >0 partial growth inhibition); for IC50: Homo sapiens
Experimental: as §5, §6

HCC38 cells = assay: as above; design: species or system human; AUC: scale not given here; details: HCC38; for AUC: area under the dose response curve, 24 h; for GRmax: drug efficacy at highest tested dose (<0 cytotoxic, 0 cytostatic, >0 partial growth inhibition)
Experimental: as §5, §6

HCC70 cells = assay: as above; design: species or system human; AUC: scale not given here; details: HCC70; for AUC: area under the dose response curve, 24 h; for GRmax: drug efficacy at highest tested dose (<0 cytotoxic, 0 cytostatic, >0 partial growth inhibition)
Experimental: as §5, §6

MCF-10A cells = assay: as above; design: species or system human; AUC: scale not given here; details: for AUC: area under the dose response curve, 24 h
Experimental: as §5, §6

MCF-7 cells = assay: as above; design: species or system human; AUC: scale not given here; details: MCF-7; for IC50: growth rate inhibition concentration at GR(c) = 0.5, 24 h, read-out: GR50 (the source's name); for AUC: area under the dose response curve, 24 h; for GRmax: drug efficacy at highest tested dose (<0 cytotoxic, 0 cytostatic, >0 partial growth inhibition)
Experimental: as §5, §6

MDA-MB-468 cells = assay: as above; design: species or system human; AUC: scale not given here; details: MDA-MB-468; for AUC: area under the dose response curve, 24 h
Experimental: as §5, §6

[1] = test system: eight TNBC cell lines (BT-549, CAL-148, HCC1806, HCC38, HCC70, MDA-MB-436, MDA-MB-453, MDA-MB-468); assay: Monotherapy drug screen, mean across the TNBC cell lines
Experimental: as §1, §2, §3, §4

[2] = Homo sapiens, growth rate inhibition concentration at GR(c) = 0.5, 24 h, read-out: GR50 (the source's name)
[3] = 24 h drug treatment, read-out: IC50
[4] = growth rate inhibition concentration at GR(c) = 0.5, 24 h, read-out: GR50 (the source's name)
[5] = Homo sapiens, 24 h drug treatment, read-out: IC50
[6] = drug efficacy at highest tested dose (<0 cytotoxic, 0 cytostatic, >0 partial growth inhibition)

For CC(C)C[C@H](NC(=O)[C@H](Cc1ccccc1)NC(=O)c1cnccn1)B(O)O [Bortezomib], the AUC (CAL-148 cells) was 0.77, the GRmax (CAL-148 cells) was 0.17 and the IC50 (CAL-148 cells; [2]) was 120 nM. It also gave an AUC (BT-549 cells) of 0.66, a GRmax (BT-549 cells) of 0.39 and an IC50 (BT-549 cells; Homo sapiens) of 100 nM. The AUC (HCC1806 cells) was 0.70, the GRmax (HCC1806 cells) was 0.33 and the IC50 (HCC1806 cells; [3]) was 790 nM. It also gave an IC50 (HCC1806 cells; [4]) of 380 nM, an AUC (HCC38 cells) of 0.40 and a GRmax (HCC38 cells) of −0.99. For the same compound, the IC50 (HCC38 cells; [5]) was 24 nM, the IC50 (HCC38 cells; [2]) was 10 nM and the AUC (HCC70 cells) was 0.68. For the same compound, the GRmax (HCC70 cells) was −0.55, the IC50 (HCC70 cells; [5]) was 810 nM and the IC50 (HCC70 cells; [2]) was 100 nM. It also gave an IC50 (MCF-10A cells; [5]) of 46 nM, an IC50 (MCF-10A cells; [2]) of 12 nM and an AUC (MCF-10A cells) of 0.59. For the same compound, the IC50 (MCF-7 cells; Homo sapiens, MCF7) was 31 nM, the AUC (MCF-7 cells) was 0.78 and the GRmax (MCF-7 cells) was −0.43. The IC50 (MDA-MB-468 cells; [5]) was 54 nM, the IC50 (MDA-MB-468 cells; [2]) was 17 nM and the AUC (MDA-MB-468 cells) was 0.57. The IC50 ([1]; Homo sapiens, 24 h, read-out: GR50 (mean ± SD)) was 100 ± 110 nM and the “area under the dose response curve (AUC), mean ± SD” value ([1]; TNBC cell lines, 24 h) was 0.66 ± 0.10.

N.N.O=C([O-])C1(C(=O)[O-])CCC1.[Pt+2] [Carboplatin] showed an IC50 (CAL-148 cells; [3]) of 930 nM, an AUC (CAL-148 cells) of 0.92 and a GRmax (CAL-148 cells) of 0.03. It also gave an IC50 (CAL-148 cells; [4]) of 490 nM, an AUC (BT-549 cells) of 0.85 and a GRmax (BT-549 cells) of 0.39. It also gave an IC50 (BT-549 cells) of 670 nM, an AUC (HCC1806 cells) of 0.90 and a GRmax (HCC1806 cells) of 0.53. It also gave an IC50 (HCC38 cells; [3]) of 890 nM, an AUC (HCC38 cells) of 0.88 and a GRmax (HCC38 cells) of 0.03. For the same compound, the IC50 (HCC38 cells; [4]) was 430 nM, the IC50 (HCC70 cells; [3]) was 450 nM and the AUC (HCC70 cells) was 0.83. It also gave a GRmax (HCC70 cells) of −0.42, an IC50 (HCC70 cells; [4]) of 270 nM and an IC50 (MCF-10A cells; [3]) of 730 nM. It also gave an AUC (MCF-10A cells) of 0.90, a GRmax (MCF-10A cells; [6]) of 0.19 and an IC50 (MCF-10A cells; [4]) of 760 nM. The AUC (MCF-7 cells) was 0.91, the GRmax (MCF-7 cells) was −0.15 and the IC50 (MCF-7 cells) was 360 nM. The IC50 (MDA-MB-468 cells; [3]) was 470 nM, the AUC (MDA-MB-468 cells) was 0.81 and the GRmax (MDA-MB-468 cells; [6]) was 0.02. For the same compound, the IC50 (MDA-MB-468 cells; [4]) was 240 nM and the “cytotoxic effect at the highest dose” value ([1]; TNBC cell lines, by GRmax) was “lowest cytotoxic effects”.
